In patent publication US8937050B2, “Methods and compositions for treatment of autism” (The Johns Hopkins University, priority 2011, dated 2015):

Experiments:
normal human fibroblasts = test: Quantitative in-cell western analysis with anti-ATP5B; format: cell-based; conditions: six days, FIG. 2B
Description: The immunostaining of primary human fibroblasts with anti-ATP5B, DRAQ5 (Cell Signaling Technologies, Danvers, Mass.; a cellular DNA stain to normalize cell number), and secondary antibody IRDye 800CW donkey anti-mouse IgG (Li-cor Biosciences, Lincoln, Nebr.) was identical to the indirect immunofluorescence procedure described above and performed in duplicate. Imaging and quantification were performed using the Odyssey Imager (L1-cor Biosciences).
In FIGS. 2A-B, the JNK inhibitor SP600125 (10 μM+inh) was utilized. […] Normal human fibroblasts were treated with each of the small four molecules with or without SP600125 for six days. Quantitative in-cell western analyses were performed using anti-ATP5B.

NFE2L2, HMOX1, and SOD2 = test: RT-PCR of antioxidant genes; format: cell-based, human; conditions: for HMOX1 mRNA levels / NFE2L2 mRNA levels / SOD2 mRNA levels: normal human fibroblasts, 18 hours, FIG. 5C
Description: (§1) Following the manufacturer's protocols, DNase I-treated cDNA was synthesized using Superscript III or Thermoscript reverse transcriptase (Invitrogen). PCR reactions were performed in duplicate on the Roche Lightcycler 3.5 (Basel, Switzerland) or the Bio-Rad iCycler (Hercules, Calif.) using Quantitech SYBR green PCR mix (Qiagen, Valencia, Calif.). GeNorm software calculated a normalization factor for each sample using the relative amounts of at least two of the following reference genes, β2-microglobulin, glyceraldehyde-6-phosphate, actin, and/or eukaryotic elongation factor 1A (Vandesompele et al., 2002).
The expression of three key components was examined—(i) nuclear factor erythroid 2-like 2 (NFE2L2), (ii) heme oxygenase 1 (HMOX1), and (iii) superoxide dismutase 2 (SOD2). […] Normal human fibroblasts were treated for 18 hours. The expression of NFE2L2, HMOX1, and SOD2 was measured as described in FIG. 2E.

Spinal Muscular Atrophy = conditions: Lunn et al., 2008; cited from earlier work
[1] = tested on: class I and class II HDAC; test: Colorimetric HDAC activity assay in HeLa or fibroblast lysates; format: biochemical; conditions: HeLa and human fibroblast lysates; two concentrations (treatment concentration and ten times); FIG. 6A-B
Description: A colorimetric HDAC activity assay was performed in triplicate using 100-200 μg of HeLa or fibroblast lysates following the manufacturer's protocol (K331; Biovision, Mountain View, Calif.).
Whether inhibition of class I and class II HDAC activities is a shared biochemical function that could account for the effects of all four small molecules was examined. Using lysates from HeLa cells and primary human fibroblasts, an in vitro colorimetric assay of HDAC activity was performed. Two concentrations of each small molecule were used. The first concentration was that used to treat primary human fibroblasts in the experiments reported herein, which minimally affects growth. The second concentration was ten times the first concentration and is lethal in cell culture. […] (* p≦0.00009; paired t-test; Bars=SEM for n≧3 independent experiments).

[2] = tested on: spinal muscular atrophy fibroblasts; test: Mitotracker Red CMXROS staining; format: cell-based, human; conditions: 2.5 mM 4PBA, HU, 100 nM TSA or 2.5 mM SFN for 5 days; FIG. 7
Description: SMA type I (GM00232) fibroblasts were treated with 2.5 mM 4PBA, 300 mM HU, 100 nM TSA or 2.5 mM SFN for 5 days, live stained with 25 nM Mitotracker Red CMXROS (Invitrogen) in pre-warmed MEM media for 15 min at 37° C. in a CO2 incubator. Stained cells were washed with pre-warmed MEM, washed with PBS and excess PBS was removed. The cells were examined under the microscope at ×80.
Spinal muscular atrophy fibroblasts were treated with 2.5 mM 4PBA, 300 mM HU, 100 nM TSA or 2.5 mM SFN for 5 days (×80 magnification).

BCN1 and ATG5 = test: RT-PCR of autophagy genes; format: cell-based, human; conditions: for ATG5 mRNA levels / BCN1 mRNA levels: normal human fibroblasts, FIG. 5A
Description: as §1
(§2) Expression of key components of the HSR, UPR, the autophagic response, and the antioxidant response were monitored at the transcriptional, translational, and/or post-translational level. […] Due to the transient nature of these responses, several components of each pathway were monitored at various time points within a 24 hour treatment. At least two normal human fibroblast lines were tested in three or more independent experiments. […] The average of the maximal increase in protein expression within a 24 hour time frame was also compared to the untreated sample. Activation of each pathway was assessed by an increase in one or more components of each pathway.
To monitor activation of autophagy, the expression of three classical autophagy markers was examined. The three classical autophagy markers are: (i) beclin-1 (BCN1), (ii) autophagy protein 5 (ATG5), and (iii) microtubule-associated protein 1 light chain 3 (LC3 or APG8). […] Normal human fibroblasts were treated as indicated. The expression of BCN1 and ATG5 were measured as described in FIG. 2E. After TSA treatment, the levels of ATG5 mRNA were measured in two independent experiments in duplicate.

Sickle Cell Disease = conditions: Hsiao et al., 2006; cited from earlier work
ATF4, CHOP, and BIP = test: RT-PCR of unfolded protein response (UPR) genes; format: cell-based, human; conditions: for BIP expression at the transcriptional level: normal human fibroblasts, FIG. 4A
Description: Following the manufacturer's protocols, DNase I-treated cDNA was synthesized using Superscript III or Thermoscript reverse transcriptase (Invitrogen). PCR reactions were performed in duplicate on the Roche Lightcycler 3.5 (Basel, Switzerland) or the Bio-Rad iCycler (Hercules, Calif.) using Quantitech SYBR green PCR mix (Qiagen, Valencia, Calif.). GeNorm software calculated a normalization factor for each sample using the relative amounts of at least two of the following reference genes, β2-microglobulin, […], actin, and/or eukaryotic elongation factor 1A (Vandesompele et al., 2002). Primers for the various experiments described herein are listed below.
Expression of key components of the HSR, UPR, the autophagic response, and the antioxidant response were monitored at the transcriptional, translational, and/or post-translational level. These responses are known to be transiently activated in response to various cellular stressors. The degree of induction of each component can vary depending on the metabolic state of the cell (e.g., confluency, cell passage number) (Kultz 2003; Lallemand et al., 1998; Westerheide et al., 2009). Due to the transient nature of these responses, several components of each pathway were monitored at various time points within a 24 hour treatment. At least two normal human fibroblast lines were tested in three or more independent experiments. […] The average of the maximal increase in protein expression within a 24 hour time frame was also compared to the untreated sample. Activation of each pathway was assessed by an increase in one or more components of each pathway.
UPR markers evaluated included the central UPR regulator glucose regulated protein 78 (BIP) and other components that are stimulated after the activation of the three ER transmembrane receptors: PKR-like ER kinase (PERK), inositol requiring 1 (IRE1), and activating transcription factor 6 (Fedoroff 2006). […] 2 alpha (eIF2a) is phosphorylated by PERK, attenuates general translation, and induces activating transcription factor 4 (ATF4). CHOP promotes reactivation of PERK. XBP1 mRNA is non-conventionally spliced by the endonuclease activity of IRE1 upon UPR activation.
Normal human fibroblasts were treated with drugs as indicated. The expression of the UPR genes ATF4, CHOP, and BIP was measured as described in FIG. 2E. […] Normal human fibroblasts were treated at various time points and the average of the maximum protein expression of BIP (78 kDa) and phosphorylated eIF2α (38 kDa) is plotted as in FIG. 2F. Actin (43 kDa) was used as a loading control and is the same blot as FIG. 2F. UT denotes untreated cells. M denotes marker lane. […] Normal human fibroblasts were treated. The expression of the unspliced form (XBP1-us; 33 kDa) and the activated and spliced form of XBP1 (XBP1-s; 54 kDa) was analyzed by immunoblotting. BP1-s is a larger protein than XBP1-us due to non-canonical mRNA splicing which results in a larger carboxy-terminal domain. […] The average of the maximum expression of XBP1-s (within 24 hrs.) is plotted as in FIG. 2F. Actin was used as a loading control.

XALD fibroblasts = test: Inhibition studies: ATP5B immunofluorescence of drug-induced mitochondrial biogenesis; format: cell-based, human; conditions: four days; FIG. 2A
Description: Performed as described in Watkins et al., 1995 using 4% formaldehyde, 1% Triton X-100, primary antibody anti-ATP5B (Millipore, Billerica, Mass.) or anti-ABCD3 (Invitrogen, Carlsbad, Calif.), and secondary antibody sheep anti-mouse IgG FITC-conjugated (Santa Cruz Biotechnology, Santa Cruz, Calif.) or goat anti-rabbit IgG rhodamine-conjugated (Jackson ImmunoResearch, West Grove, Pa.).
Antimycin A (10 ng/mL), LY294002, PD98059, RO-31-8425, SB203580, SP600125, and L-NAME were obtained from Sigma. Compound C was from EMD Biosciences (Darmstadt, Germany). Human fibroblasts were treated with each inhibitor. Then, 45-75 min later, either 4PBA, HU, TSA, or SFN was added. Cells were stained four to six days after treatment with one of the small molecules. As a control for inhibitors dissolved in DMSO, fibroblasts were treated with an equivalent amount of DMSO in the absence of inhibitor. […]
In FIGS. 2A-B, the JNK inhibitor SP600125 (10 μM+inh) was utilized. […] XALD fibroblasts were treated with each drug for four days with or without SP600125. (400× magnification). […] Normal human fibroblasts were treated with each of the small four molecules with or without SP600125 for six days. Quantitative in-cell western analyses were performed using anti-ATP5B.

HSP70 and HSP90 = test: Immunoblot analyses of HSP expression; format: cell-based, human; conditions: for heat shock response (HSR): normal human fibroblasts
Description: Cell lysates were collected in mammalian protein extraction reagent (m-PER; Thermo Scientific, Rockford, Ill.) plus 1×protease inhibitor (Sigma-Aldrich) and 1×Halt phosphatase inhibitor (Thermo Scientific). Denatured SDS-PAGE and immunoblot analyses were performed using the following antibodies: phosphorylated JNK and β-actin from Santa Cruz Biotechnology, HSP70, HSP90, BIP, phosphorylated eIF2α, and XBP1 from Cell Signaling, APG8 (Abgent, San Diego, Calif.), and SOD2 (Stressgen, Ann Arbor, Mich.). Quantitation was performed using a Fuji Intelligent Dark box II, FUJI LAS-1000 Lite software and Image Gauge v4.22 software (Tokyo, Japan).
as §2
Normal human fibroblasts were treated at various time points within 24 hours and the average of the maximum protein expression of HSP70 (70 kDa) and HSP90 (90 kDa) is plotted as in FIG. 2F. Actin (43 kDa) was used as a loading control. (UT=untreated cells; * statistical significance (p≦0.05); Bars=SEM for n≧3 independent experiments).

[3] = tested on: HSPA1A (HSP70), DNAJC3 (HSP40), HSP90AA1 (HSP90); test: RT-PCR of heat shock response (HSR) genes; format: cell-based, human; conditions: for transcription of HSPA1A (HSP70): FIG. 3A
Description: as §1, §2
To evaluate its activation, the expression of heat shock protein (HSP) 40, HSP 70, and HSP 90 family members was monitored. […] Normal human fibroblasts were treated and the mRNA expression of HSPA1A (HSP70), DNAJC3 (HSP40), and HSP90AA1 (HSP90) was measured and plotted as in FIG. 2E.

[4] = tested on: ALD (Abcd1−/Y) mouse model; conditions: ALD (Abcd1−/Y) mouse model in vivo; McGuinness et al., 2003; cited from earlier work
Cystic Fibrosis = conditions: Choo-Kang et al., 2001, Hutt et al., 2010; cited from earlier work
Ischemia = conditions: Qi et al., 2004, Yoon et al., 2008; cited from earlier work

Compound | mitochondrial mass (ATP5B) compared to untreated cells (normal human fibroblasts) [fold] | HMOX1 mRNA levels (NFE2L2, HMOX1, and SOD2) | NFE2L2 mRNA levels (NFE2L2, HMOX1, and SOD2) | SOD2 mRNA levels (NFE2L2, HMOX1, and SOD2) | Therapeutic Effect (Spinal Muscular Atrophy) | HDAC activity compared to untreated lysates [1] | mitochondrial biogenesis (Mitotracker staining) [2] | ATG5 mRNA levels (BCN1 and ATG5) | BCN1 mRNA levels (BCN1 and ATG5) | Therapeutic Effect (Sickle Cell Disease) | BIP expression at the transcriptional level (ATF4, CHOP, and BIP) | mitochondrial biogenesis in XALD fibroblasts (XALD fibroblasts) | heat shock response (HSR) (HSP70 and HSP90) | transcription of HSPA1A (HSP70) ([3]; normal human fibroblasts) | abnormally high levels of very long chain fatty acids (VLCFA) [4] | Therapeutic Effect (Cystic Fibrosis) | Therapeutic Effect (Ischemia) | also measured
NC(=O)NO [HU, hydroxyurea] | 1.8 | significantly increased | increased | increased | increase percentage of full | neither concentration of HU nor SFN reduced | induced | increased | not reproducibly changed | increase F-cell production | significantly increased | increased | activated | not stimulated |  |  |  | 
CC(/C=C/C(=O)NO)=C\[C@@H](C)C(=O)c1ccc(N(C)C)cc1 [TSA, trichostatin A] | 2.5 | significantly increased | increased | increased | increase percentage of full | significantly decreased | induced | increased | increased | increase F-cell production | significantly increased | increased | activated | increased | normalized | increase proper protein |  | 
C[S@@+]([O-])CCCCN=C=S [SFN, 1-isothiocyanato-4R-(methylsulfinyl)butane] | 2.2 | significantly increased | increased | increased |  | neither concentration of HU nor SFN reduced | induced | increased | increased |  | significantly increased | increased | activated | increased |  |  | protection via antioxidant | expression of HMOX1 increase (NFE2L2, HMOX1, and SOD2; in vitro sulforaphane studies): 6 fold; expression of NFE2L2 increase (NFE2L2, HMOX1, and SOD2; in vitro sulforaphane studies): 3 fold; expression of SOD2 increase (NFE2L2, HMOX1, and SOD2; in vitro sulforaphane studies): 4 fold; ATG5 mRNA levels increase (BCN1 and ATG5; in vitro sulforaphane studies): 3 fold; BCN1 mRNA levels increase (BCN1 and ATG5; in vitro sulforaphane studies): 5 fold; ATF4 mRNA expression increase (ATF4, CHOP, and BIP; in vitro sulforaphane studies): 4-5 fold; BIP increase at the transcriptional level (ATF4, CHOP, and BIP; in vitro sulforaphane studies): 2-3 fold; CHOP mRNA expression increase (ATF4, CHOP, and BIP; in vitro sulforaphane studies): 4-5 fold; total HSP70 protein levels increase (HSP70 and HSP90; in vitro sulforaphane studies): 3-4 fold; total HSP90 protein levels increase (HSP70 and HSP90; in vitro sulforaphane studies): 3-4 fold; transcription of HSP40 increase ([3]; in vitro sulforaphane studies): 3 fold; transcription of HSP70 increase ([3]; in vitro sulforaphane studies): 7 fold; transcription of HSP 90 increase ([3]; in vitro sulforaphane studies): 3 fold; mRNA expression of heat-shock proteins genes increase ([3]; normal human fibroblasts, 5 micromolar (μM)): 3-7 fold
4-phenylbutyrate [4PBA] | 2.4 | significantly decreased | increased | increased | increase percentage of full | significantly decreased | induced | increased | increased | increase F-cell production | significantly increased | increased | activated | increased | normalized | increase proper protein | protection via antioxidant | 
